Experimental data as given in PubChem BioAssay AID2060340 (Molecular Pharmacology Branch, DTP, NCI, 2025).

Tested on: 349418-098-R-PDC spheroids, viability, % test/control
Test: Anticancer human tumor 349418-098-R-PDC patient-derived lung adenocarcinoma cell line growth inhibition [IpAb]
Conditions: spheroids with HUVEC and MSC; for IC50: curve of first compound; for viability, T/C: stronger effect = lower value
Procedure, shortened: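 Multi-cell spheroids of 60% tumour cells, 25% HUVEC and 15% MSC in ultra-low-attachment U-bottom wells, treated with agents combined with ipatasertib or abemaciclib. Half-log ranges top out near clinical Cmax, or 10 microM when Cmax is unknown.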

[1] = second compound 0.1 µM, first compound 0.0316 µM
[2] = second compound 0.1 µM, first compound 0.1 µM
[3] = second compound 0.316 µM, first compound 0.0316 µM
[4] = second compound 0.316 µM, first compound 0.1 µM
[5] = second compound 1 µM, first compound 0.0316 µM
[6] = second compound 1 µM, first compound 0.1 µM
[7] = second compound 3.16 µM, first compound 0.0316 µM
[8] = second compound 3.16 µM, first compound 0.1 µM
[9] = second compound 10 µM, first compound 0.0316 µM
[10] = second compound 10 µM, first compound 0.1 µM
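Further: spheroids exposed to compounds for 7 days.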

Cn1ncc(Cl)c1-c1cc(C(=O)NC(CN)Cc2cccc(F)c2)sc1Cl (stereo not given) + CC(C)NCC(C(=O)N1CCN(c2ncnc3c2C(C)CC3O)CC1)c1ccc(Cl)cc1
IC50 (second compound 0.1 µM): 90.8 nM
IC50 (second compound 0.316 µM): < 31.6 nM
IC50 (second compound 1 µM): < 31.6 nM
IC50 (second compound 3.16 µM): < 31.6 nM
IC50 (second compound 10 µM): < 31.6 nM
viability, T/C [1]: 79.5%
viability, T/C [2]: 45.1%
viability, T/C (second compound 0.1 µM, first compound 0.316 µM): 29.4%
viability, T/C (second compound 0.1 µM, first compound 1 µM): 12.3%
viability, T/C (second compound 0.1 µM, first compound 3.16 µM): 6.88%
viability, T/C (second compound 0.1 µM, first compound 10 µM): 0.08%
viability, T/C [3]: 49.7%
viability, T/C [4]: 31.8%
viability, T/C (second compound 0.316 µM, first compound 0.316 µM): 25.3%
viability, T/C (second compound 0.316 µM, first compound 1 µM): 12.1%
viability, T/C (second compound 0.316 µM, first compound 3.16 µM): 7.48%
viability, T/C (second compound 0.316 µM, first compound 10 µM): 0.08%
viability, T/C [5]: 23.2%
viability, T/C [6]: 22.2%
viability, T/C (second compound 1 µM, first compound 0.316 µM): 15.9%
viability, T/C (second compound 1 µM, first compound 1 µM): 10.1%
viability, T/C (second compound 1 µM, first compound 3.16 µM): 6.54%
viability, T/C (second compound 1 µM, first compound 10 µM): 0.08%
viability, T/C [7]: 15.3%
viability, T/C [8]: 12.2%
viability, T/C (second compound 3.16 µM, first compound 0.316 µM): 10.8%
viability, T/C (second compound 3.16 µM, first compound 1 µM): 8.53%
viability, T/C (second compound 3.16 µM, first compound 3.16 µM): 6.62%
viability, T/C (second compound 3.16 µM, first compound 10 µM): 0.19%
viability, T/C [9]: 7.77%
viability, T/C [10]: 8.14%
viability, T/C (second compound 10 µM, first compound 0.316 µM): 7.56%
viability, T/C (second compound 10 µM, first compound 1 µM): 6.63%
viability, T/C (second compound 10 µM, first compound 3.16 µM): 5.87%
viability, T/C (second compound 10 µM, first compound 10 µM): 0.18%

Cn1ncnc1[C@H]1c2n[nH]c(=O)c3cc(F)cc(c23)N[C@@H]1c1ccc(F)cc1 + CC(C)NCC(C(=O)N1CCN(c2ncnc3c2C(C)CC3O)CC1)c1ccc(Cl)cc1
IC50 (second compound 0.1 µM): > 100 nM
IC50 (second compound 0.316 µM): 0.621 nM
IC50 (second compound 1 µM): < 0.316 nM
IC50 (second compound 3.16 µM): < 0.316 nM
IC50 (second compound 10 µM): < 0.316 nM
viability, T/C (second compound 0.1 µM, first compound 0.000316 µM): 82.5%
viability, T/C (second compound 0.1 µM, first compound 0.001 µM): 80.5%
viability, T/C (second compound 0.1 µM, first compound 0.00316 µM): 77.3%
viability, T/C (second compound 0.1 µM, first compound 0.01 µM): 70%
viability, T/C [1]: 68.7%
viability, T/C [2]: 76.7%
viability, T/C (second compound 0.316 µM, first compound 0.000316 µM): 52.6%
viability, T/C (second compound 0.316 µM, first compound 0.001 µM): 48.4%
viability, T/C (second compound 0.316 µM, first compound 0.00316 µM): 42.8%
viability, T/C (second compound 0.316 µM, first compound 0.01 µM): 46.8%
viability, T/C [3]: 41.7%
viability, T/C [4]: 37%
viability, T/C (second compound 1 µM, first compound 0.000316 µM): 26.4%
viability, T/C (second compound 1 µM, first compound 0.001 µM): 24.1%
viability, T/C (second compound 1 µM, first compound 0.00316 µM): 18.9%
viability, T/C (second compound 1 µM, first compound 0.01 µM): 16.7%
viability, T/C [5]: 17.2%
viability, T/C [6]: 17.1%
viability, T/C (second compound 3.16 µM, first compound 0.000316 µM): 13.8%
viability, T/C (second compound 3.16 µM, first compound 0.001 µM): 15.8%
viability, T/C (second compound 3.16 µM, first compound 0.00316 µM): 11.1%
viability, T/C (second compound 3.16 µM, first compound 0.01 µM): 10.2%
viability, T/C [7]: 9.16%
viability, T/C [8]: 7.75%
viability, T/C (second compound 10 µM, first compound 0.000316 µM): 9.03%
viability, T/C (second compound 10 µM, first compound 0.001 µM): 7.63%
viability, T/C (second compound 10 µM, first compound 0.00316 µM): 6.62%
viability, T/C (second compound 10 µM, first compound 0.01 µM): 6.38%
viability, T/C [9]: 5.72%
viability, T/C [10]: 6.34%
